{"source": "patent US20090191173A1", "about": "“Induction Of Neurogenesis And Stem Cell Therapy In Combination With Copolymer 1” (priority 2004, published 2009)", "molecules": {"B1": {"name": "rTNF-α: recombinant mouse TNF-α (protein)", "chain": "LRSSSQNSSDKPVAHVVANHQVEEQLEWLSQRANALLANGMDLKDNQLVVPADGLYLVYSQVLFKGQGCPDYVLLTHTVSRFAISYQEKVNLLSAVKSPCPKDTPEGAELKPWYEPIYLGGVFQLEKGDQLSAEVNLPKYLDFAESGQVYFGVIAL"}, "B2": {"name": "OVA/CFA/PBS: nonself protein ovalbumin emulsified in CFA, PBS i.c.v. (protein, UniProt P01012 2-386, looked up)", "Ovalbumin": "GSIGAASMEFCFDVFKELKVHHANENIFYCPIAIMSALAMVYLGAKDSTRTQINKVVRFDKLPGFGDSIEAQCGTSVNVHSSLRDILNQITKPNDVYSFSLASRLYAEERYPILPEYLQCVKELYRGGLEPINFQTAADQARELINSWVESQTNGIIRNVLQPSSVDSQTAMVLVNAIVFKGLWEKAFKDEDTQAMPFRVTEQESKPVQMMYQIGLFRVASMASEKMKILELPFASGTMSMLVLLPDEVSGLEQLESIINFEKLTEWTSSNVMEERKIKVYLPRMKMEEKYNLTSVLMAMGITDVFSSSANLSGISSAESLKISQAVHAAHAEINEAGREVVGSAEAGVDAASVSEEFRADHPFLFCIKHIATNAVLFFGRCVSP", "modifications": "emulsified in CFA"}}, "key": {"[1]": {"system": "spinal cord injury (SCI) in C57B1/6J mice", "format": "in vivo, mouse"}, "[2]": {"system": "neural progenitor cells (NPCs)", "test": "Neurogenesis from NPCs co-cultured with microglia pre-activated by aggregated Aβ and cytokines", "format": "cell-based, mouse", "conditions": "10 days; Aβ 5 μM 48 h, cytokines 10 ng/ml", "protocol": "(xx) Reagents. Recombinant mouse IFN-γ and IL-4 (both containing endotoxin at a concentration below 0.1 ng/μg cytokine) were obtained from R&D Systems (Minneapolis, Minn.). β-amyloid peptides [amyloid protein fragment 1-40 and 1-42 (Aβ1-40/1-42)] were purchased from Sigma-Aldrich, St. Louis, Mo. The Aβ peptides were dissolved in endotoxin-free water, and Aβ aggregates were formed by incubation of Aβ, as described (Ishii et al., 2000). (xxv) Neural progenitor cell culture. Coronal sections (2 mm thick) of tissue containing the subventricular zone of the lateral ventricle were obtained from the brains of adult C57B1/6J mice. […] After centrifugation at 110×g for 15 min at room temperature, the tissue was mechanically dissociated by pipette trituration. Cells obtained from single-cell suspensions were plated (3500 cells/cm^2) in 75-cm^2 Falcon tissue-culture flasks (BD Biosciences, San Diego, Calif.), in NPC-culturing medium [Dulbecco's modified Eagles's medium (DMEM)/F12 medium (Gibco/Invitrogen, Carlsbad, Calif.) containing 2 mM L-glutamine, 0.6% glucose, 9.6 μg/ml putrescine, 6.3 ng/ml progesterone, 5.2 ng/ml sodium selenite, 0.02 mg/ml insulin, 0.1 mg/ml transferrin, 2 μg/ml heparin (all from Sigma-Aldrich, Rehovot, Israel), fibroblast growth factor-2 (human recombinant, 20 ng/ml), and epidermal growth factor (human recombinant, 20 ng/ml; both from Peprotech, Rocky Hill, N.J.)]. Spheres were passaged every 4-6 days and replated as single cells. Green fluorescent protein (GFP)-expressing NPCs were obtained as previously described (Pluchino et al., 2003). (xxvi) Primary microglial culture. Brains from neonatal (P0-P1) C57B1/6J mice were stripped of their meninges and minced with scissors under a dissecting microscope (Zeiss, Stemi DV4, Germany) in Leibovitz-15 medium (Biological Industries, Kibbutz Beit Ha-Emek, Israel). […] The cell suspension was washed in culture medium for glial cells [DMEM supplemented with 10% fetal calf serum (FCS; Sigma-Aldrich, Rehovot), L-glutamine (1 mM), sodium pyruvate (1 mM), penicillin (100 U/ml), and streptomycin ([…])] and cultured at 37° C./5% CO2 in 75-cm^2 Falcon tissue-culture flasks (BD Biosciences) coated with poly-D-lysine (PDL) (10 mg/ml; Sigma-Aldrich, Rehovot) in borate buffer (2.37 g borax and 1.55 g boric acid dissolved in 500 ml sterile water, pH 8.4) for 1 h, then rinsed thoroughly with sterile, glass-distilled water. Half of the medium was changed after 6 h in culture and every 2nd day thereafter, starting on day 2, for a total culture time of 10-14 days. […]"}, "[3]": {"system": "neural progenitor cells (NPCs)", "test": "Oligodendrocyte differentiation (NG2, RIP, GalC) of NPCs co-cultured with activated microglia", "format": "cell-based, mouse", "conditions": "agent added to NPCs co-cultured with MG(IFN-γ)", "protocol": "(iii) Neural progenitor cell (NPC) culture. Coronal sections (2 mm thick) of tissue containing the subventricular zone of the lateral ventricle were obtained from the brains of adult C57B16/J mice. The tissue was minced and then incubated for digestion at 37° C., 5% CO2 for 45 min in Earle's balanced salt solution containing 0.94 mg/ml papain (Worthington, Lakewood, N.J.) and 0.18 mg/ml of L-cysteine and EDTA. After centrifugation at 110×g for 15 min at room temperature, the tissue was mechanically dissociated by pipette trituration. Cells obtained from single-cell suspensions were plated (3500 cells/cm^2) in 75-cm^2 Falcon tissue-culture flasks (BD Biosciences, Franklin Lakes, N.J.), in NPC-culturing medium [Dulbecco's modified Eagles's medium (DMEM)/F12 medium (Gibco/Invitrogen, Carlsbad, Calif.) containing 2 mM L-glutamine, 0.6% glucose, 9.6 μg/ml putrescine, 6.3 ng/ml progesterone, 5.2 ng/ml sodium selenite, 0.02 mg/ml insulin, 0.1 mg/ml transferrin, 2 μg/ml heparin (all from Sigma-Aldrich, Rehovot, Israel), fibroblast growth factor-2 (human recombinant, 20 ng/ml), and epidermal growth factor (human recombinant, 20 ng/ml; both from Peprotech, Rocky Hill, N.J.)]. Spheres were passaged every 4-6 days and replated as single cells. Green fluorescent protein (GFP)-expressing neural progenitor cells (NPCs) were obtained as previously described (Pluchino et al., 2003). […]"}}, "note": "Read-outs that look alike come from different tables or passages of the source."}
{"molecule": "MEVGWYRSPFSRVVHLYRNGK [MOG/CFA, MOG peptide 35-55 emulsified in CFA containing 2.5% Mycobacterium tuberculosis]", "values": [{"measurement": "Basso motor score (BMS)", "setting": "[1]; MOG 35-55 in CFA 2.5% M. tuberculosis one week prior to SCI, no aNPCs (FIGS. 7G, 7H)", "result": "0.35±0.2"}]}
{"molecule": "Aβ(1-40): aggregated amyloid protein fragment 1-40", "values": [{"measurement": "neurogenesis (GFP+/βIIIT+ cells) from NPCs co-cultured with treated microglia", "setting": "[2]", "result": "blocked neurogenesis and decreased the number of NPCs"}]}
{"molecule": "Aβ(1-42): aggregated amyloid protein fragment 1-42", "values": [{"measurement": "neurogenesis (GFP+/βIIIT+ cells) from NPCs co-cultured with treated microglia", "setting": "[2]", "result": "negative effect was not exhibited"}]}
{"molecule": "MEVGWYRSPFSRVVHLYRNGK [MOG/CFA/PBS, pMOG 35-55 emulsified in CFA, PBS i.c.v. instead of cells]", "values": [{"measurement": "Basso motor score (BMS), mean±SEM", "setting": "[1]; immunization immediately after SCI, CFA containing 0.5% Mycobacterium tuberculosis, i.c.v. injection 1 week later (FIG. 7A)", "result": "2.71±0.5"}]}
{"molecule": "MEVGWYRSPFDRVVHLYRNGK [45D peptide, altered MOG 35-55 peptide, serine to aspartic acid substitution]", "values": [{"measurement": "Basso motor score (BMS), mean±SEM", "setting": "[1]; immunization in CFA 2.5% M. tuberculosis, without aNPC transplantation (FIG. 7C)", "result": "2.57±0.24"}, {"measurement": "Basso motor score (BMS), mean±SEM", "setting": "[1]; vaccination in CFA 2.5% M. tuberculosis 1 week before SCI, aNPCs i.c.v. 1 week after SCI (FIG. 7C)", "result": "4.11±0.27"}]}
{"molecule": "B1", "values": [{"measurement": "oligodendrogenesis induced by MG(IFN-γ)", "setting": "[3]", "result": "negative effect"}]}
{"molecule": "B2", "values": [{"measurement": "Basso motor score (BMS)", "setting": "[1]; OVA in CFA 2.5% M. tuberculosis, i.c.v. injection 1 week later (FIG. 7F)", "result": "2.2±0.68"}]}
